This is an account of results in article PMC6010047, “Design, synthesis and biological evaluation of novel hydroxy-phenyl-1H-benzimidazoles as radical scavengers and UV-protective agents” (Journal of Enzyme Inhibition and Medicinal Chemistry, 2017).

The IC50 is the concentration that inhibits the measured activity by half. High values mean lower potency, low ones higher potency.

Read-outs that look alike come from different tables or passages of the source.

A short description of series [1]: Cytotoxicity, MTT test, 72 h. As to conditions: human, NCTC-2544 keratinocytes (immortalized, nontumorigenic).
Experimental: (§1) An immortalized, nontumorigenic cell line of human keratinocytes (NCTC-2544) was grown in a DMEM medium (Sigma-Aldrich Milan, Italy), supplemented with 115 units/mL of penicillin G, 115 μg/mL streptomycin, and 10% fetal calf serum (Invitrogen, Milan, Italy). Individual wells of a 96-well tissue culture microtiter plates (Falcon, Becton–Dickinson) were inoculated with 100 μL of complete medium containing 5 × 10^3 NCTC-2544. The plates were incubated at 37 °C in a humidified (5% CO2) incubator for 18 h prior to the experiments.
After medium removal, 100 μL of the drug solution, dissolved in DMSO and diluted in DMEM medium, was added to each well, incubated at 37 °C for 72 h. Final DMSO concentration never exceeded 0.5%. Cell viability was assayed by the MTT (3–(4,5-dimethylthiazol-2-yl)-2,5 diphenyl tetrazolium bromide) test as previously described by Mosmann[27].
The tests were conducted using a specific cell line of human keratinocytes (NCTC-2544). To assess cell viability, in the presence of the study compounds, before and after the irradiation, the MTT assay was performed[27]. The cytotoxicity was checked after 72 h from the incubation of the keratinocytes with compounds; moreover, the same experiments were performed in the presence of the parent PBSA.
The nature of series [2]: Ferric reducing antioxidant of potency (FRAP) assay. Format: biochemical. As to conditions: Trolox equivalents; mean ± SE of three experiments. On the procedure:
The ferric reducing ability of each standard solution was measured according to a modified protocol described by Guihua et al.[26]. The reagent for analysis was freshly prepared by mixing the following solutions in the reported ratio 10/1/1 (v:v:v) (i) 0.1 M acetate buffer pH 3.6, (ii) TPTZ (2,4,6-Tri(2-pyridyl)-s-triazine) 10 mmol/L in 40 mmol/HCl, (iii) ferric chloride 20 mmol/L. To a 1.9 mL of reagent were added 0.1 mL of sample proper diluted or solvent when blank was performed. Readings at fixed wavelength of the absorption maximum (593 nm) were done after 30 min, using a UV-VIS spectrophotometer; it was evaluated the absorbance increase of sample solution against the absorbance of blank reaction as parameter to calculate the antioxidant activity. The antioxidant activity is given as Trolox activity since this standard was used to perform the calibration curves.

A short description of series [3]: UV spectra: λmax and molar extinction coefficient. As to conditions: for λ max: aqueous solution at pH 7; for ɛ (molar extinction coefficient): aqueous solution at pH 7, at λ max, linear regression Lambert–Beer. It is filed as physicochemical. On the procedure: Sun protection factor (SPF) is related to the UV absorption of the substances, so before including the molecules in cosmetic formulations we evaluated the wavelength of maximum absorption (λmax) and the molar extinction coefficient (ɛ) of each molecule in aqueous solution at pH 7. The UV spectra were recorded between 270 and 420 nm (20 nm higher and lower then UVA and UVB range) to verify the spectrum profile of the molecules within UVA and UVB region. UV spectrum of PBSA is an UVB filter and presents a λmax of 302 nm; after this peak, the absorbance fades going to higher wavelength until almost zero around 325 nm, and then, it provides no absorption in the UVA region. Molecules spectra overlapped for category according to the substituent in position 5 of the benzimidazole ring are shown in Figures 1, 2 and 3; PBSA spectrum is presented in all figures for comparison.
From the spectra appears that the lambda maxima (Table 2) of the new molecules shifted toward higher wavelength and in general the range of absorption curve was wider than PBSA. Within a group of molecules, the batochromic shift was more marked for the molecules that have a hydroxyl moiety in position 2 of the phenyl ring (4, 5, 6, 9, 10, 11, 13 and […]); the effect of ortho substituted is known to produce this shift toward higher wavelength. Increasing the number of auxochrome groups on phenyl ring an increment in the absorption range occurred, compounds with three hydroxyl on the phenyl ring (6, 11, 15) had the broadest spectrum and their lambda maxima shifted at the highest wavelength compared to the other compounds. The absorption spectrum of molecules with the same number and position of hydroxyl seemed only slightly influenced by the substituent in position 5 of the benzimidazole ring. After having established the lambda maxima for every compound, solutions at different concentrations were prepared to calculate the molar extinction coefficient by means of linear regression and applying Lambert–Beer equation (Table 2).

In a further series the test system is NCTC-2544 cells. Briefly: Phototoxicity / cellular photoprotection, UVA or UVB irradiation, MTT test. As to conditions: for viability at 50 µM: Homo sapiens, NCTC-2544, light or radiation study, 48 h; for cell survival in relation to the irradiated control: after UVB irradiation 1 J/cm^2.
Series [4] is described as follows: PCL antioxidant activity of finished formulations. It is filed as biochemical. As to conditions: 3% (w/w) compound in O/W formulation. How it is done: PCL assay, based on the methodology of Popov and Lewin[23], was used to measure the antioxidant activity of synthesized compounds with a Photochem® apparatus (Analytik Jena, Leipzig, Germany) against superoxide anion radicals generated from luminol, a photosensitizer, when exposed to UV light (Double Bore® phosphor lamp, output 351 nm, 3 mWatt/cm^2). The antioxidant activity was measured using ACL (Antioxidant Capacity of Liposoluble substance) kit provided by the manufacturer designed to measure the antioxidant activity of lipophilic compounds[24]. […] The areas under the curves were calculated using the PCLsoft control and analysis software. […] This inhibition was used as a parameter for quantification and related to the decrease in the integral of PCL intensities caused by varying concentrations of Trolox. The observed inhibition of the signal was plotted against the concentration of Trolox added to the assay medium. The concentration of the added tested compounds was such that the generated luminescence during the 180-s sampling interval fell within the limits of the standard curve. The antioxidant assay was carried out in triplicate for each sample, and 20 μL of the diluted compound in HPLC-grade methanol (ACL) was sufficient to correspond to the standard curve.
It was decided to use a standard formulation oil in water (O/W).
In particular, molecules with phenolic hydroxyl in the ortho position on the phenyl ring (4, 5, 9, 10 and 13) had better and higher UVA/UVB ratio and critical wavelength, although they have the SPF value less than lead compound. Formulation containing products 2 and 14, which have a phenolic hydroxyl at the para position on the phenyl ring, have shown good values in terms of SPF, greater UVA protection factor, critical wavelength and also higher UVA/UVB ratio than PBSA, but yet lower than the molecules containing hydroxyl on the phenyl ring in ortho. […] Compound 8 has lower SPF than 3, but higher than PBSA; in comparison with 3, molecules 8 and 12 presented higher UVA/UVB ratio and critical wavelength. Regarding compounds with three hydroxyls on phenyl ring, they have good UVA filtering parameters, their critical wavelengths are the highest and SPF is higher than PBSA for molecule 6, while SPF of 15 is slightly lower and decreases further in molecule 11. Thus, it can be observed that parameters are mainly influenced by the number and position of the hydroxyl groups on the phenyl ring rather than the substituent in the 5-position of benzimidazole. Concomitantly, all formulations were analyzed to assess whether the antioxidant power was maintained. […] In Table 4, the antioxidant activity, measured by PCL method, of finished formulations is reported; as it can be seen results were in agreement with that obtained testing the pure compounds. […] Formulations containing compounds 3, 8 and 12 presented highest antioxidant capabilities; these are followed, but with important decrease in antioxidant capacity, by formulations with compounds 6, […] and 15 that have three hydroxyl moieties on phenyl ring.

Setting [5] is: read-out: % Cell survival UVA 20 J/cm^2.
Setting [6] is: read-out: % Cell survival UVB 0.5 J/cm^2.
The mark [7] stands for this setting: read-out: % Cell survival UVB 1 J/cm^2.

Experimental for NCTC-2544 cells: as §1
Two HPW 125 Philips lamps, mainly emitting at 365 nm, were used for UVA irradiation experiments. The spectral irradiance of the source was 4.0 mWcm^−^2 as measured at the sample level by a Cole-Parmer Instrument Company radiometer (Niles, IL) equipped with a 365-CX sensor. One or two PL-S 9 W/12 Philips lamps (280–370 nm; peak at 315 nm) were used for UVB irradiation experiments. To restrict the incident radiation to the range 305–370 nm, a glass filter (Schott SWG-305) was used. Total energy was detected by the same equipped with a sensor (model CX-312).
After medium removal, 100 μL of the drug solution, dissolved in DMSO and diluted with Hank’s Balanced Salt Solution (HBSS pH =7.2), was added to each well, incubated at 37 °C for 30 min, and then irradiated (20 J/cm^2 for UVA and 0.5 and 1 J/cm^2 for UVB). After irradiation, the solution was replaced with the medium and the plates were further incubated for 48 h. Cell viability was assayed by the MTT [(3–(4,5-dimethylthiazol-2-yl)-2,5 diphenyl tetrazolium bromide)] test as previously described by Mosmann[27].
Molecules were verified for their photocytotoxicity in the same cell line; the cells were treated with 50 μM solutions of compound and after 30 min were irradiated with 20 J/cm^2 UVA or with UVB at two energy amounts: 0.5 J/cm^2 and 1 J/cm^2 UVB. […] After irradiation, the solution was replaced with growth medium and the cells were further incubated for 48 h, and then, cell viability was assessed by MTT assay. […] The phototoxicity of tested molecules was compared with the ratio of cell survival of irradiated keratinocytes without substance (IC = irradiated control).

Consider `O=C(O)c1ccc2[nH]c(-c3ccc(O)c(O)c3)nc2c1` [Compound 12, 2-(3,4-Dihydroxy-phenyl)-1H-benzimidazole-5-carboxylic acid], for which the IC50 at 72 h in series [1] is greater than 50 µM. Also, the FRAP in series [2] is recorded as 2433.28 ± 21.74 μmolTrolox/mmol. For the same compound, in series [3], the λ max amounted to 317 nm. Moreover, the “ɛ (molar extinction coefficient)” value in series [3] was 21 000. Further, the viability at 50 µM was found to be 74.3 ± 2% in the series on NCTC-2544 cells (setting [5]), 76.3 ± 3.6% in the series on NCTC-2544 cells (setting [6]) and 64.5 ± 3.5% with NCTC-2544 cells (setting [7]). Moreover, the “cell survival in relation to the irradiated control” value (shortened to “cell survival in relation”) with NCTC-2544 cells is on record as “doubled”. Also, in series [4], the “PCL of finished formulation” value amounted to 1373.39 ± 19.43 μmol Trolox/g formulation.

For `O=C(O)c1ccc2[nH]c(-c3ccc(O)cc3O)nc2c1` [Compound 13, 2-(2,4-Dihydroxy-phenyl)-1H-benzimidazole-5-carboxylic acid], the half-maximal inhibitory concentration (IC50) at 72 h in series [1] is greater than 50 µM. The FRAP in series [2] was found to be 31.63 ± 1.96 μmolTrolox/mmol. This compound registered a λ max in series [3] of 321 nm. Moreover, the “ɛ (molar extinction coefficient)” value in series [3] was 20 000. Further, the figures for the viability at 50 µM with NCTC-2544 cells (setting [5]), in the series on NCTC-2544 cells (setting [6]) and in the series with NCTC-2544 cells (setting [7]) were 80.7 ± 1.3%, 69 ± 0.2% and 57.5 ± 2.4%, respectively. The “cell survival in relation” value in the series on NCTC-2544 cells was “doubled”. Further, the “PCL of finished formulation” value in series [4] turned out to be 4.97 ± 0.17 μmol Trolox/g formulation.

Turning to `O=C(O)c1ccc2[nH]c(-c3ccc(O)cc3)nc2c1` [Compound 14, 2-(4-Hydroxy-phenyl)-1H-benzimidazole-5-carboxylic acid], in series [1], the half-maximal inhibitory concentration (IC50) at 72 h was greater than 50 µM. Moreover, the FRAP in series [2] worked out at 2.62 ± 0.06 μmolTrolox/mmol. The compound further had a λ max in series [3] of 312 nm. Besides, the “ɛ (molar extinction coefficient)” value in series [3] is 24 000. The figures for the viability at 50 µM in the series with NCTC-2544 cells (setting [5]), in the series on NCTC-2544 cells (setting [6]) and in the series on NCTC-2544 cells (setting [7]) were 76.7 ± 3.4%, 74.2 ± 3.4% and 58.4 ± 2.5%, respectively. Also, the “cell survival in relation” value in the series on NCTC-2544 cells is “doubled”. Further, the “PCL of finished formulation” value in series [4] is recorded as 0.16 ± 0.02 μmol Trolox/g formulation.

Turning to `O=C(O)c1ccc2[nH]c(-c3ccc(O)c(O)c3O)nc2c1` [Compound 15, 2-(2,3,4-Trihydroxy-phenyl)-1H-benzimidazole-5-carboxylic acid], in series [1], the IC50 at 72 h is greater than 50 µM. Also, in series [2], the FRAP came to 2355.15 ± 52.55 μmolTrolox/mmol. The compound further yielded a λ max in series [3] of 332 nm. Moreover, the “ɛ (molar extinction coefficient)” value in series [3] is on record as 17 000. Further, the viability at 50 µM came out at 12.2 ± 1.3% in the series on NCTC-2544 cells (setting [5]), 60.1 ± 2.3% in the series with NCTC-2544 cells (setting [6]) and 25.6 ± 2.7% in the series with NCTC-2544 cells (setting [7]). Also, the “phototoxic effect (cell survival vs irradiated control)” value in the series on NCTC-2544 cells (NCTC-2544, UVA/UVB irradiation) is recorded as “phototoxic effect”. In series [4], the “PCL of finished formulation” value worked out at 86.99 ± 6.95 μmol Trolox/g formulation.
